According to paper PMC11681159, “Bee pollen peptides as potent tyrosinase inhibitors with anti-melanogenesis effects in murine b16f10 melanoma cells and zebrafish embryos” (Scientific Reports, 2024):

Columns and labels:
TYR (di-phenolase) = details: cited from earlier work
Source text: In order to check our own hypothesis concerning the ability of the peptide VY-9 to inhibit TYR, we created a synthetic peptide with a matching sequence to test the inhibition in the case of both mono-phenolase and di-phenolase forms. […] The plots can be seen in Fig. 3a-d, where four lines of differing gradients meet at the same intersection point for the vertical coordinate at varying concentrations of the VY-9 peptide.

TYR (mono-phenolase) = details: cited from earlier work
Source text: In order to check our own hypothesis concerning the ability of the peptide VY-9 to inhibit TYR, we created a synthetic peptide with a matching sequence to test the inhibition in the case of both mono-phenolase and di-phenolase forms. […] Ge et al.[34]. noting that hydrophobic interactions with hydrophobic side chains located at the active sites of TYR could be increased by inhibitors which have aromatic ring structures. […] For instance, Schurink et al.[38]. performed the screening of seven different peptides offering TYR inhibition from protein ... || In order to understand the VY-9 peptide mechanism for TYR inhibition, the inhibition mode was investigated through the analysis of Lineweaver-Burk plots. The plots can be seen in Fig. 3a-d, where four lines of differing gradients meet at the same intersection point for the vertical coordinate at varying concentrations of the VY-9 peptide.

mushroom TYR = tested on: mushroom TYR; parameters: method as in PMID 19440221; details: cited from earlier work
Source text: Abu Ubeid et al.[51]. conducted the screening of an internal library to identify the active oligopeptides capable of inhibiting TYR in mushrooms.

skin = details: treatment of hyperpigmentation; cited from earlier work
Source text: In producing cosmetic products and functional foods, safety is of the highest priority during the formulation process.

A375 melanoma cells = details: 0.5-1 mM; cited from earlier work
TYR = details: cited from earlier work
Source text: TIPs are now widely prepared via enzymatic hydrolysis, due to the ease of controlling the process and the absence of extreme reaction conditions. There are many commercially produced enzymes which are available to support TIP production, among which are trypsin, chymotrypsin, flavourzyme, alkaline protease, neutral protease, papain, and so forth. It is understood that different enzymes can differ in their hydrolytic impact upon a given material because the binding specificity between substrate and enzymes will vary. […] Further fractionation of the MW < 0.65 kDa ultrafiltrated fraction can be carried out by SEC using a Superdex 30 Increase column with a separation range of 100-7,000 Da. […] Where hydrophobic amino acids appear at each end of the peptide chain, this increases the interactivity with the copper active sites of TYR. Furthermore, it was reported by Wang et al.[33]. that a low-molecular-weight (700-1,700 Da) gelatin hydrolysate derived from the sea cucumber wall offered 55.7% hydrophobic amino acids. While the exterior environme ... || (+ 2 further places)

human melanocytes = tested on: human melanocytes; parameters: method as in PMID 19440221; details: 100 µM, seven days; cited from earlier work
human TYR = tested on: human TYR; parameters: method as in PMID 19440221; details: cited from earlier work
melanoma cells = details: 500 µM; cited from earlier work
cells = details: cited from earlier work
Source text: (§1) One role of TYR, which is a binuclear copper enzyme, is to regulate melanogenesis. It acts as a catalyst for the hydroxylation of tyrosine and the oxidation of 3, 4-dihydroxyphenylalanine (L-DOPA) to o-dopaquinone which are the rate limiting reactions which occur during the synthesis of melanin. Skin color is dependent upon the level of melanin synthesis as well as the type of melanin and the way it is distributed through the keratinocytes. Achieving effective inhibition of TYR with minimal adverse side effects has remained a longstanding challenge within the realms of dermatological and cosme ...

[1] = presence of water or oxygen; cited from earlier work
Source text: as §1

B16F10 melanoma cells = experiment: Melanin content assay in B16F10 cells; assay type: cell-based, mouse; details: arbutin 0.2 mM, 48 h, 405 nm
Method: In order to assess melanin content, culture flasks were used to grow B16F10 cells (1 × 10^5 cells/flask) for 24 h. […] Cell harvesting was conducted by trypsinization and the cells were then rinsed twice in cold PBS. The cell pellets were then dissolved in 0.3 mL of 1 N NaOH to produce solutions which were heated to 90 °C for a one-hour period. The lysates were then placed in a centrifuge for 10 min at 3,000 × g whereupon a microplate reader was used to assess the melanin quantity at 405 nm. The protein content in the supernatant was evaluated using the Bradford protein assay with the findings presented in the form of a percentage of the control. Arbutin (0.2 mM) served as the positive control. Each trial was carried out in triplicate, with results presented in the form of mean ± standard deviation.

zebrafish embryos = experiment: Melanin inhibitory assay in zebrafish embryos; assay type: in vivo; details: PTU 0.0015%, vs control
Method: To perform the test of acute toxicity, a total of 20 fertilized zebrafish embryos were collected at around 4 h after fertilization and added to each well in a 12-well plate. These embryos then underwent treatment using different quantities of […] (2, 4, 6, 8, and 10 µM), while the negative control was distilled water and the positive control was 3,4-dichloroaniline. Incubation of the plate then took place until 48 h after fertilization at a temperature of 28.5 ± 1 °C. The test solutions were refreshed at 24 h after fertilization to allow the counting and removal of any dead embryos. Following exposure, a stereomicroscope (SZX16, Olympus, Japan) was used to record the embryo morphological effects. Meanwhile, a slightly modified version of a previously described melanin inhibitory assay was carried out[30]. The embryos were then homogenized using a cold lysis buffer (PBS pH 7.4, 1% Triton-X and 1% DMSF). The lysate then underwent 10 min of sonication before being placed in a centrifuge for 5 min at 10,000×g. The pellet was then removed from the centrifuge and dissolved in 200 µL of 1 N NaOH for 1 h at a temperature of 85 °C. This sample was subsequently vortexed and placed in the centrifuge for a further 5 min at 10,000×g. A microplate reader (Spectramax M5, Molecular Devices, USA) was then employed to determine the supernatant absorbance at 490 nm. Melanin content levels could then by calibrated by using the protein amount, and were reported in the form of a percentage compared to the untreated control. In the melanin inhibitory assay, the positive control used was phenylthiourea (PTU) solution (0.0015%).

Molecule: HGGEGGRPY [CT-1, rice bran protein hydrolysate peptide]
- TYR inhibition, di-phenolase L-DOPA substrate reaction (TYR (di-phenolase)): did not do so in the di-phenolase L-DOPA substrate reaction
- TYR inhibition, mono-phenolase tyrosine substrate reaction (TYR (mono-phenolase)): notable TYR inhibition

Molecule: HPTSEVY [CT-3, rice bran protein hydrolysate peptide]
- TYR inhibition, di-phenolase L-DOPA substrate reaction (TYR (di-phenolase)): did not do so in the di-phenolase L-DOPA substrate reaction
- TYR inhibition, mono-phenolase tyrosine substrate reaction (TYR (mono-phenolase)): notable TYR inhibition

Molecule: Oc1ccc(O)cc1 [hydroquinone]
- IC50 (mushroom TYR): 680 µM
- undesirable side effects (skin): contact dermatitis, irritation of the skin, and exogenous ochronosis

Molecule: ECGYF
- melanin level in A375 cells (A375 melanoma cells): able to lower the melanin levels in cultured A375 melanoma cells more effectively than arbutin or glutathione
- TYR inhibition vs arbutin and glutathione (TYR): exceeded those of arbutin and glutathione
- IC50 (TYR; read-out: TYR inhibition IC50): 460 µM

Molecule: MRSRERSSWY [TH10]
- IC50 (TYR (mono-phenolase); read-out: IC50 (tyrosine substrate of TYR)): 102 µM

Molecule: RADSRADC [oligopeptide of an internal library]
- reduction in melanin content (human melanocytes): 27%
- IC50 (mushroom TYR): 123 µM
- human TYR inhibition vs hydroquinone (human TYR): to a greater extent than was the case with hydroquinone

Molecule: LQPSHY [CT-2, rice bran protein hydrolysate peptide]
- TYR inhibition, di-phenolase L-DOPA substrate reaction (TYR (di-phenolase)): did not do so in the di-phenolase L-DOPA substrate reaction
- TYR inhibition, mono-phenolase tyrosine substrate reaction (TYR (mono-phenolase)): notable TYR inhibition
- cytotoxic effects (melanoma cells): no cytotoxic effects were recorded
- melanogenesis inhibition (melanoma cells): > 50%

Molecule: IQSPHFF [from Phage Display Library]
- Ki (TYR (di-phenolase); competitive): 765 µM
- inhibition type (TYR (di-phenolase); di-phenolase): competitive inhibitor

Molecule: GYSLGNWVCAAK [obtained from egg white protein]
- inhibition type (TYR): competitively inhibit TYR

Molecule: ILFTLL
- IC50 against TYR (TYR): 9250 µg/mL

Molecule: O=c1cc(CO)occ1O [kojic acid]
- toxicity towards cells (cells): high degree of toxicity towards cells
- stability [1]: instability in the presence of water or oxygen

Molecule: TIPPPT
- IC50 against TYR (TYR): 7590 µg/mL

Molecule: SFLLRN [oligopeptide of an internal library]
- IC50 (mushroom TYR): 8000 µM

Molecule: KFEKKFEK [oligopeptide of an internal library]
- IC50 (mushroom TYR): 3600 µM

Molecule: OC[C@H]1O[C@@H](Oc2ccc(O)cc2)[C@H](O)[C@@H](O)[C@@H]1O [arbutin, reference compound]
- reduction in melanin content (B16F10 melanoma cells): 54.34%

Molecule: IIPFIF
- IC50 against TYR (TYR): 6160 µg/mL

Molecule: O=S(O)O [sulfite]
- toxicity towards cells (cells): high degree of toxicity towards cells
- stability [1]: instability in the presence of water or oxygen

Molecule: YRSRKYSSWY [P4, peptide from an earlier study]
- reduction in melanin content (human melanocytes): 43%
- IC50 (mushroom TYR): 40 µM
- human TYR inhibition vs hydroquinone (human TYR): to a greater extent than was the case with hydroquinone

Molecule: NC(=S)Nc1ccccc1 [PTU, phenylthiourea, reference compound]
- melanin content (zebrafish embryos): differed significantly (p < 0.01) to the control
